Reference: patent US10328053B2 (Gilead Sciences, Inc., priority 2016, dated 2019)

What was measured:
[1] = tested on: HBV AD38 viral particles in HepG2 cell line overexpressing NTCP; assay: HBV DNA Quantification Assay; assay type: cell-based; conditions: Hepatitis B virus, HepG2, 120 h, HBV-infected HepG2-NTCP cells, 5 days incubation, HBV DNA in culture supernatant (QuantiGene 2.0); geometric mean of a minimum of four determinations
Method: HBV DNA Quantification Assay
A HepG2 cell line overexpressing the HBV virus attachment receptor sodium-taurocholate cotransporting polypeptide (NTCP) was grown to confluency in DMEM growth medium, Dulbecco's Modified Eagle Medium without sodium pyruvate (Life Technologies, Rockville, Md.) supplemented with 10% FBS (Thermo Scientific, Waltham, Md.), 1% penicillin/streptomycin (Life Technologies, Rockville, Md.) and 2 mM L-glutamine (Life Technologies, Rockville, Md.) in T175 flasks. Cells were infected with HBV AD38 viral particles (Texcell, Frederick, USA) at 4000 genome equivalents per cell. After allowing viral infection to take place for 4 days, the infected cells were harvested from the flasks by trypsinization, washed twice with OptiMEM (Life Technologies, Rockville, Md.) and re-suspended in DMEM containing 2% FBS and 1% DMSO at a density of 0.25E6 cells/ml. Infected cells were seeded on 384 well collagen coated plates (Greiner, Austria) at a density of 20,000 cells/well containing serially diluted compounds of the present disclosure or DMSO (0.5%) in a final volume of 80 μl. The assay plates were incubated for a period of 5 days and the antiviral activity of the test compounds were assayed by detecting the presence of HBV DNA in the culture supernatant using the QuantiGene™ 2.0 nucleic acid quantification kit (Affymetrix, Santa Clara, Calif.).
The culture supernatant was harvested and treated with lysis buffer containing Proteinase K (Affymetrix, Santa Clara, Calif.). The supernatant was incubated with HBV viral DNA specific probes (Affymetrix, Santa Clara, Calif.) for 30 minutes at 55° C. This was followed by addition of 0.2M NaOH for 30 minutes at room temperature to denature the DNA, followed by addition of Neutralization buffer (Affymetrix, Santa Clara, Calif.). The resulting lysed and neutralized supernatant was then added to QuantiGene™ 2.0 384 well plates coated with capture oligonucleotides and incubated overnight at 55° C. The HBV specific probe set consists of Capture Extender oligonucleotides (CE's) and blocking probes. Following the overnight incubation, the wells were incubated for one hour sequentially with a Pre-Amplifier, Amplifier and Labeled probes conjugated to alkaline phosphatase with a wash step between incubations. After the final wash step, the alkaline phosphatase substrate (Luminol APS5) was added and the resulting luminescence signal was read in an EnVision Multilabel Plate Reader (PerkinElmer, Santa Clara, Calif.). The EC50 values were calculated from the fit of the dose—response curves to a four-parameter equation. All EC50 values represent geometric mean values of a minimum of four determinations.

[2] = Hepatic Stability Assay (in vitro half-life method); assay type: in vitro ADME; parameters: dose or concentration left out as unconfirmed; conditions: pooled cryopreserved hepatocytes, 37° C., 1×10^6 cells/mL, 0-6 hours, LC-MS/MS, 39.5 hours is the maximum detectable half life, read-out: t½ (converted)
Method: Hepatic Stability Assay The metabolic stability of certain compounds disclosed herein was assessed in vitro in pooled cryopreserved hepatocytes using the in vitro half-life method. Incubations were at 37° C. and final concentrations in the incubations were 1×10^6 cells/mL and […] test concentration of the compound. Aliquots were sequentially removed after 0, 1, 3 and 6 hours and analyzed by LC-MS/MS. In vitro half-life was determined by measuring the rate of disappearance of the compound and then scaled to predicted hepatic clearance using the well-stirred model. […] As such, compounds having a value of 39.5 may have a half live that exceeds 39.5 hours.

## Cc1c(C(=O)C(=O)NC2(c3nncs3)CC2)c2n(c1C(=O)Nc1ccc(F)c(Cl)c1)[C@@H]1C[C@@H]1C2 [Example 54, (1aR,6aR)-5-(2-((1-(1,3,4-thiadiazol-2-yl)cyclopropyl)amino)-2-oxoacetyl)-N-(3-chloro-4-fluorophenyl)-4-methyl-1,1a,6,6a-tetrahydrocyclopropa[b]pyrrolizine-3-carboxamide]
[1]
  EC50: 7.8 nM
[2]
  half-life: 6.7 h

## Cc1c(C(=O)C(=O)NC2(c3nncs3)CC2)c2n(c1C(=O)Nc1ccnc(C(F)F)c1F)[C@@H]1C[C@@H]1C2 [Example 68, (1aR,6aR)-5-(2-((1-(1,3,4-thiadiazol-2-yl)cyclopropyl)amino)-2-oxoacetyl)-N-(2-(difluoromethyl)-3-fluoropyridin-4-yl)-4-methyl-1,1a,6,6a-tetrahydrocyclopropa[b]pyrrolizine-3-carboxamide]
[1]
  EC50: 110 nM
[2]
  half-life: 5.2 h

## Cc1c(C(=O)C(=O)NC2(c3cnn[nH]3)CC2)c2n(c1C(=O)Nc1ccc(F)c(Cl)c1F)CCC2 [Example 84, 7-(2-((1-(1H-1,2,3-triazol-5-yl)cyclopropyl)amino)-2-oxoacetyl)-N-(3-chloro-2,4-difluorophenyl)-6-methyl-2,3-dihydro-1H-pyrrolizine-5-carboxamide]
[1]
  EC50: 31 nM
[2]
  half-life: 10.7 h

## Cc1c(C(=O)C(=O)NC2(C(=O)N3CC4(COC4)C3)CC(F)(F)C2)c2n(c1C(=O)Nc1ccc(F)c(Cl)c1)CCC2 [Example 27, N-(3-chloro-4-fluorophenyl)-7-(2-((3,3-difluoro-1-(2-oxa-6-azaspiro[3.3]heptane-6-carbonyl)cyclobutyl)amino)-2-oxoacetyl)-6-methyl-2,3-dihydro-1H-pyrrolizine-5-carboxamide]
[1]
  EC50: 32.3 nM
[2]
  half-life: 0.9 h

## Cc1c(C(=O)C(=O)NC2(c3c[nH]nn3)CC2)c2n(c1C(=O)Nc1ccc(F)c(Cl)c1)C[C@@H](F)C2 [Example 46, (S)-7-(2-((1-(1H-1,2,3-triazol-4-yl)cyclopropyl)amino)-2-oxoacetyl)-N-(3-chloro-4-fluorophenyl)-2-fluoro-6-methyl-2,3-dihydro-1H-pyrrolizine-5-carboxamide]
[1]
  EC50: 264 nM
[2]
  half-life: 16 h

## CC(C)(C)NC(=O)C(=O)c1c(Cl)c(C(=O)Nc2ccc(F)c(C#N)c2)n2c1CCC2 [Example 1, 7-(2-(tert-Butylamino)-2-oxoacetyl)-6-chloro-N-(3-cyano-4-fluorophenyl)-2,3-dihydro-1H-pyrrolizine-5-carboxamide]
[1]
  EC50: 27.1 nM

## Cc1c(C(=O)C(=O)N[C@](C)(CO)C(F)(F)F)c2n(c1C(=O)Nc1ccc(F)c(Cl)c1)CCC2 [Example 132, (R)—N-(3-Chloro-4-fluorophenyl)-6-methyl-7-(2-oxo-2-((1,1,1-trifluoro-3-hydroxy-2-methylpropan-2-yl)amino)acetyl)-2,3-dihydro-1H-pyrrolizine-5-carboxamide]
[1]
  EC50: 8.3 nM
[2]
  half-life: 7.7 h

## Cc1c(C(=O)C(=O)NC2(C(F)(F)F)COC2)c2n(c1C(=O)Nc1ccc(F)c(Cl)c1)CCC2 [Example 7, N-(3-chloro-4-fluorophenyl)-6-methyl-7-(2-oxo-2-((3-(trifluoromethyl)oxetan-3-yl)amino)acetyl)-2,3-dihydro-1H-pyrrolizine-5-carboxamide]
[1]
  EC50: 5.8 nM
[2]
  half-life: 4.8 h

## CNC(=O)[C@@H](NC(=O)C(=O)c1c(C)c(C(=O)Nc2ccc(F)c(Cl)c2)n2c1CCC2)C(C)C [Example 128, (S)—N-(3-chloro-4-fluorophenyl)-6-methyl-7-(2-((3-methyl-1-(methylamino)-1-oxobutan-2-yl)amino)-2-oxoacetyl)-2,3-dihydro-1H-pyrrolizine-5-carboxamide]
[1]
  EC50: 170 nM

## CNC(=O)C(C)(C)NC(=O)C(=O)c1c(C)c(C(=O)Nc2ccc(F)c(Cl)c2)n2c1CCC2 [Example 82, N-(3-chloro-4-fluorophenyl)-6-methyl-7-(2-((2-methyl-1-(methylamino)-1-oxopropan-2-yl)amino)-2-oxoacetyl)-2,3-dihydro-1H-pyrrolizine-5-carboxamide]
[1]
  EC50: 133 nM

## CNC(=O)C(C)(C)NC(=O)C(=O)c1c(C)c(C(=O)Nc2ccc(F)c(C(F)F)c2)n2c1CCC2 [Example 114, N-(3-(difluoromethyl)-4-fluorophenyl)-6-methyl-7-(2-((2-methyl-1-(methylamino)-1-oxopropan-2-yl)amino)-2-oxoacetyl)-2,3-dihydro-1H-pyrrolizine-5-carboxamide]
[1]
  EC50: 156 nM

## Cc1c(C(=O)C(=O)NC2(c3cnn[nH]3)CC2)c2n(c1C(=O)Nc1cccc(OC(F)(F)F)c1)CCC2 [Example 85, 7-(2-((1-(1H-1,2,3-triazol-5-yl)cyclopropyl)amino)-2-oxoacetyl)-6-methyl-N-(3-(trifluoromethoxy)phenyl)-2,3-dihydro-1H-pyrrolizine-5-carboxamide]
[1]
  EC50: 294 nM

## Cc1c(C(=O)C(=O)NC2(c3ccccc3)CC2)c2n(c1C(=O)Nc1cc(F)c(F)c(F)c1)CCC2 [Example 67, 6-methyl-7-(2-oxo-2-((1-phenylcyclopropyl)amino)acetyl)-N-(3,4,5-trifluorophenyl)-2,3-dihydro-1H-pyrrolizine-5-carboxamide]
[1]
  EC50: 6.5 nM

## CNC(=O)C1(NC(=O)C(=O)c2c(C)c(C(=O)Nc3ccc(F)c(C#N)c3)n3c2C[C@H]2C[C@H]23)CC(F)(F)C1 [Example 30, (1aR,6aR)—N-(3-cyano-4-fluorophenyl)-5-(2-((3,3-difluoro-1-(methylcarbamoyl)cyclobutyl)amino)-2-oxoacetyl)-4-methyl-1,1a,6,6a-tetrahydrocyclopropa[b]pyrrolizine-3-carboxamide]
[2]
  half-life: 27.2 h

## Cc1c(C(=O)C(=O)NC2(c3c[nH]nn3)CC(F)(F)C2)c2n(c1C(=O)Nc1ccnc(C(F)F)c1F)C[C@H](F)C2 [Example 134, (R)-7-(2-((3,3-difluoro-1-(1H-1,2,3-triazol-4-yl)cyclobutyl)amino)-2-oxoacetyl)-N-(2-(difluoromethyl)-3-fluoropyridin-4-yl)-2-fluoro-6-methyl-2,3-dihydro-1H-pyrrolizine-5-carboxamide]
[2]
  half-life: 17.9 h

## CNC(=O)C1(NC(=O)C(=O)c2c(C)c(C(=O)Nc3ccc(F)c(Cl)c3)n3c2CCC3)CC(F)(F)C1 [Example 3, N-(3-chloro-4-fluorophenyl)-7-(2-((3,3-difluoro-1-(methylcarbamoyl)cyclobutyl)amino)-2-oxoacetyl)-6-methyl-2,3-dihydro-1H-pyrrolizine-5-carboxamide]
[2]
  half-life: 35.1 h

## CNC(=O)C1(NC(=O)C(=O)c2c(C)c(C(=O)Nc3ccc(F)c(Cl)c3F)n3c2CCC3)CC(F)(F)C1 [Example 127, N-(3-chloro-2,4-difluorophenyl)-7-(2-((3,3-difluoro-1-(methylcarbamoyl)cyclobutyl)amino)-2-oxoacetyl)-6-methyl-2,3-dihydro-1H-pyrrolizine-5-carboxamide]
[2]
  half-life: 15.2 h

## Cc1c(C(=O)C(=O)NC2(c3c[nH]nn3)CC2)c2n(c1C(=O)Nc1ccnc(C(F)F)c1F)[C@@H]1C[C@@H]1C2 [Example 63, (1aR,6aR)-5-(2-((1-(1H-1,2,3-triazol-4-yl)cyclopropyl)amino)-2-oxoacetyl)-N-(2-(difluoromethyl)-3-fluoropyridin-4-yl)-4-methyl-1,1a,6,6a-tetrahydrocyclopropa[b]pyrrolizine-3-carboxamide]
[2]
  half-life: 11.2 h

## Cc1c(C(=O)C(=O)NC23CC(C(N)=O)(C2)C3)c2n(c1C(=O)Nc1ccc(F)c(Cl)c1)CCC2 [Example 106, 7-(2-((3-carbamoylbicyclo[1.1.1]pentan-1-yl)amino)-2-oxoacetyl)-N-(3-chloro-4-fluorophenyl)-6-methyl-2,3-dihydro-1H-pyrrolizine-5-carboxamide]
[1]
  EC50: 124 nM
